Data published in patent US7687536B2, “Aminocycloalkyl cinnamide compounds for arrhythmia and as analgesics and anesthetics” (Cardiome Pharma Corp., priority 1999, dated 2010).

Columns and labels:
[1] = tested on: sustained AF maintained during continuous vagal nerve stimulation; experiment: Canine vagal-AF model; type: in vivo, dog
Protocol: Mongrel dogs of either sex weighing 15-49 kg were anesthetized with morphine (2 mg/kg im initially, followed by 0.5 mg/kg IV every 2 h) and α-chloralose (120 mg/kg IV followed by an infusion of 29.25 mg/kg/h; St.-Georges et al., 1997). Dogs were ventilated mechanically with room air supplemented with oxygen via an endotracheal tube at 20 to 25 breaths/minute with a tidal volume obtained from a nomogram. Arterial blood gases were measured and kept in the physiological range (SAO2>90%, pH 7.30-7.45). Catheters were inserted into the femoral artery for blood pressure recording and blood gas measurement, and into both femoral veins for drug administration and venous sampling. Catheters were kept patent with heparinized 0.9% saline solution. Body temperature was maintained at 37-40° C. with a heating blanket.
The heart was exposed via a medial thoracotomy and a pericardial cradle was created. Three bipolar stainless steel, Teflon™-coated electrodes were inserted into the right atria for recording and stimulation, and one was inserted into the left atrial appendage for recording. A programmable stimulator (Digital Cardiovascular Instruments, Berkeley, Calif.) was used to stimulate the right atrium with 2 ms, twice diastolic threshold pulses. Two stainless steel, Teflon™-coated electrodes were inserted into the left ventricle, one for recording and the other for stimulation. A ventricular demand pacemaker (GBM 5880, Medtronics, Minneapolis, Minn.) was used to stimulate the ventricles at 90 beats/minute when (particular during vagal-AF) the ventricular rate became excessively slow. A P23 ID transducer, electrophysiological amplifier (Bloom Associates, Flying Hills, Pa.) and paper recorder (Astromed MT-95000, Toronto, ON, Canada) were used to record ECG leads II and III, atrial and ventricular electrograms, blood pressure and stimulation artefacts. The vagi were isolated in the neck, doubly-ligated and divided, and electrodes inserted in each nerve (see below). To block changes in β-adrenergic effects on the heart, nadolol was administered as an initial dose of 0.5 mg/kg iv, followed by 0.25 mg/kg IV every two hours.
Drug effects to terminate sustained AF maintained during continuous vagal nerve stimulation were assessed. Unipolar hook electrodes (stainless steel insulated with Teflon™, coated except for the distal 1-2 cm) were inserted via a 21 gauge needle within and parallel to the shaft of each nerve. In most experiments, unipolar stimuli were applied with a stimulator (model DS-9F, Grass Instruments, Quincy, Mass.) set to deliver 0.1 ms square-wave pulses at 10 Hz and a voltage 60% of that required to produce asystole. In some experiments, bipolar stimulation was used. The voltage required to produce asystole ranged between 3-20 volts. Under control conditions, a short burst of rapid atrial pacing (10 Hz, four times diastolic threshold) was delivered to induce AF which was ordinarily sustained for more than 20 minutes. The vagal stimulation voltage was adjusted under control conditions, and then readjusted after each treatment to maintain the same bradycardic effect. AF was defined as rapid (>500 minute under control conditions), irregular atrial rhythm with varying electrogram morphology.
Diastolic threshold current was determined at a basic cycle length of 300 ms by increasing the current 0.1 mA incrementally until stable capture was obtained. For subsequent protocols current was set to twice diastolic threshold. Atrial and ventricular ERP was measured with the extrastimulus method, over a range of S1S2 intervals at a basic cycle length of 300 ms. A premature extrastimulus S2 was introduced every 15 basic stimuli. The S1S2 interval was increased in 5 ms increments until capture occurred, with the longest S1S2 interval consistently failing to produce a propagated response defining ERP. Diastolic threshold and ERP were determined in duplicate and averaged to give a single value. These values were generally within 5 ms. […]

cardiac sodium channel = biological target: T1, cardiac sodium channel (Rattus norvegicus, UniProt P15389); experiment: Assessment of sodium channel blockage: electrical stimulation of left ventricle in rats; type: in vivo; conditions: infusion rate required to elicit a 25% increase from control
T1 construct: from tissue; host or cells: heart (left ventricle) of the living rat, in vivo
T1 sequence (P15389 whole entry, the tested form may be a part): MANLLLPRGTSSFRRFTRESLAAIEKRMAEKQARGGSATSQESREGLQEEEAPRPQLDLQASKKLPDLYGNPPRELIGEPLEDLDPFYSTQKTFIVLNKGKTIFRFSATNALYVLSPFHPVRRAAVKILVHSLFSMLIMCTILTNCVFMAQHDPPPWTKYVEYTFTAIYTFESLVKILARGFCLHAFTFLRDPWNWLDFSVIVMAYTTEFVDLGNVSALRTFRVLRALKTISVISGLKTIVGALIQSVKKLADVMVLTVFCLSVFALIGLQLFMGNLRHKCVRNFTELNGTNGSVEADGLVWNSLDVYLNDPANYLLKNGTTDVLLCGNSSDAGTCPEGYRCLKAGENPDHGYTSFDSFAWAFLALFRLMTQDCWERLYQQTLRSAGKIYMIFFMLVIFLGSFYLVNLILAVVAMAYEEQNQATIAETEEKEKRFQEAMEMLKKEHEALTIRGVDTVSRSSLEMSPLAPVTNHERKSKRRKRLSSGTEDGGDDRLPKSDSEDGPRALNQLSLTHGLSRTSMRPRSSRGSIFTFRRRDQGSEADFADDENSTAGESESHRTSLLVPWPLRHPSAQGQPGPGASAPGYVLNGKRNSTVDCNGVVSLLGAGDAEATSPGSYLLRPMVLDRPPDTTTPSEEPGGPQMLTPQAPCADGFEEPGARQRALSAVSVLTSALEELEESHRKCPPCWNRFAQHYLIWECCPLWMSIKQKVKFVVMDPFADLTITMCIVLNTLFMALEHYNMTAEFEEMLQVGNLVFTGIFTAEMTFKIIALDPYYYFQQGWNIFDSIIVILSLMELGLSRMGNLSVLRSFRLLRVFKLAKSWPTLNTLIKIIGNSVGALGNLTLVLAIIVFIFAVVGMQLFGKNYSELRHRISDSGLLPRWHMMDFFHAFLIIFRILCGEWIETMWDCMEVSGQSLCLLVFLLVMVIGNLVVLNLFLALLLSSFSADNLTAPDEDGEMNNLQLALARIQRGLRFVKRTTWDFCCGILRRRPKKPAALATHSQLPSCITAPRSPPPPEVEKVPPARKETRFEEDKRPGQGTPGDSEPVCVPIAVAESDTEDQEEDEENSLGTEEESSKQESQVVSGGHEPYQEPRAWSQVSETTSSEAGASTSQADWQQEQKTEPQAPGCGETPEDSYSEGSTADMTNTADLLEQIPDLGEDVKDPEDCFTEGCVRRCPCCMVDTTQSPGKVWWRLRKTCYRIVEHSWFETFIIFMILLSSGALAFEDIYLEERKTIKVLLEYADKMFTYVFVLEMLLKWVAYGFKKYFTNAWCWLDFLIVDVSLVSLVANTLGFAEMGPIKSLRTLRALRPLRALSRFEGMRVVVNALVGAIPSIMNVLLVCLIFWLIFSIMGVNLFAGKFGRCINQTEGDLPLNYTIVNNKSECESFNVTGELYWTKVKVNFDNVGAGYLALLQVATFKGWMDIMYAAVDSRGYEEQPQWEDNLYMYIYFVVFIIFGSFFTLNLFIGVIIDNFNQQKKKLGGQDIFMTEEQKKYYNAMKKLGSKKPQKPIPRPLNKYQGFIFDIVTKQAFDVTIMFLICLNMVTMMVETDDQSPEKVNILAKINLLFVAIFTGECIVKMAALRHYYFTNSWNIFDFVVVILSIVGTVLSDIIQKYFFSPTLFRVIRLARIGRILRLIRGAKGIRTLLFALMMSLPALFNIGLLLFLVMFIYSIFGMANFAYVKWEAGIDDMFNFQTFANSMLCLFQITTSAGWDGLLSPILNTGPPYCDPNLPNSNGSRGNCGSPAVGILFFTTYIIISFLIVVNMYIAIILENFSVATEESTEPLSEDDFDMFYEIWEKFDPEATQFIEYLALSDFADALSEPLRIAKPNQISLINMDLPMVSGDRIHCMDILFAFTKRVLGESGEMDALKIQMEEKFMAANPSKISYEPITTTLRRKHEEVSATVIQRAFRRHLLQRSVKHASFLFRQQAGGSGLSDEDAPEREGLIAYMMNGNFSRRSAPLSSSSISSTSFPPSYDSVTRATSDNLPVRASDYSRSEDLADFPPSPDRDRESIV
Protocol: Rats were prepared according to the preceding procedure. Two silver stimulating electrodes were inserted through the chest wall and implanted in the left ventricle. Square wave stimulation was used to determine threshold current for capture, ventricular fibrillation threshold current, and effective refractory period (Howard, P. G. and Walker, M. J. A., Proc. West. Pharmacol. Soc. 33:123-127 (1990)). Table 4 contains ED25 values for these indices of cardiac sodium channel blockage, where the ED25 is the infusion rate in micromol/kg/minute of compound required to elicit a 25% increase from control. The increases in refractoriness indicate ancillary blockage of potassium channels. The threshold current for capture is represented by “It”. The fibrillation threshold current is represented by “VFT”. The effective refracting period is represented by “ERP”.

[2] = tested on: ECG parameters (P-R, QRS, Q-T interval); experiment: Measurement of ECG parameters in pentobarbital anesthetized rats, bolus injections; type: in vivo, rat; conditions: bolus injection
Protocol: Rats weighing 200-250 gms were used in this example. Animals were anesthetized with 60 mg/kg pentobarbital i.p. The carotid artery and jugular vein were cannulated for measurement of blood pressure and drug injection, respectively. ECG was recorded by insertion of electrodes placed along the anatomical axis of the heart. All compounds were given as bolus injections.
Various ECG parameters were measured. Table 3 describes the results of the tests as ED25 (micromol/kg) which are the doses required to produce a 25% increase in the parameter measured (ne=not estimated). The increases in P-R interval and QRS interval indicate cardiac sodium channel blockage while the increase in Q-T interval indicates ancillary cardiac potassium channel blockage which is the property of a type 1a antiarrhythmic.

[3] = tested on: cardiac arrhythmias in conscious rats subjected to coronary artery occlusion; experiment: Antiarrhythmic efficacy: coronary artery occlusion in conscious rats; type: in vivo, rat; conditions: infusion rate which reduces the arrhythmia score to 50% of that of vehicle-treated animals
Protocol: Antiarrhythmic efficacy was assessed by investigating the effect of a compound on the incidence of cardiac arrhythmias in conscious rats subjected to coronary artery occlusion. Rats weighing 200-300 gms were subjected to preparative surgery and assigned to groups in a random block design. In each case, the animal was anesthetized with halothane during surgical preparation. The left femoral artery was cannulated for measurement of mean arterial blood pressure and withdrawal of blood sample. The left femoral vein was also cannulated for injection of drugs. The thoracic cavity was opened and a polyethylene occluder loosely placed around the left anterior descending coronary artery. The thoracic cavity was then closed. ECG was recorded by insertion of electrodes placed along the anatomical axis of the heart. All cannulae and electrode leads were exteriorized in the mid scapular region. […] ECG, arrhythmias, blood pressure, heart rate and mortality were monitored for 30 minutes after occlusion. Arrhythmias were recorded as ventricular tachycardia (VT) and ventricular fibrillation (VF) and scored according to Curtis, M. J. and Walker, M. J. A., Cardiovasc. […]
Occlusion is associated with increases in R-wave height and “S-T” segment elevation; and an occluded zone (measured after death by cardiogreen dye perfusion) in the range of 25%-50% of total left-ventricular weight. […]

AF = conditions: cited from earlier work

With O=C(NCC1CCCCN1)c1cc(OCC(F)(F)F)ccc1OCC(F)(F)F (stereo not shown) [Flecainide] as the molecule, how does the “Median dose required for termination of AF” value ([1]; IV) read?
Its value is 2.5 µmol/kg.

What about the “effect on blood pressure or heart rate” value ([1]; at the median dose for termination of vagal-AF) of the same molecule?
Its value is “did not reduce blood pressure or heart rate”.

What about the “prevented induction of AF” value ([1]; dogs in which AF was induced under control conditions during ERP determination with vagal nerve stimulation) of the same molecule?
Its value is 2/4.

What about the “AF cycle length (AFCL)” value ([1]; during vagal nerve stimulation, prior to termination of AF) of the same molecule?
Its value is “prolonged AFCL”.

What about the “Mean dose required for termination of AF” value ([1]; mean±SEM, IV) of the same molecule?
Its value is 4 ± 2 µmol/kg.

What about the “efficacy for terminating AF (dogs terminated/dogs tested)” value ([1]; vagal-AF) of the same molecule?
The value was 5/6.

And the “efficacy for terminating AF (percent of dogs)” value ([1]; vagal-AF)?
Its value is 80%.

Which results are given for CN(C(=O)C=Cc1ccc(Cl)c(Cl)c1)C1CCCC1N1CCCC1.Cl [Compound 3, (1R,2R)/(1S,2S)≠N-METHYL-N-[2-(1-PYRROLIDINYL)CYCLOPENTYL]3,4-DICHLOROCINNAMIDE MONOHYDROCHLORIDE]?
ED25 ERP (effective refractory period) (cardiac sodium channel): 2 µmol/kg/min; ED25 It (threshold current for capture) (cardiac sodium channel): 4 µmol/kg/min; ED25 VFT (fibrillation threshold current) (cardiac sodium channel): 12 µmol/kg/min; ED25 PR ([2]; dose required to produce a 25% increase in P-R interval): 8 µmol/kg; ED25 QT ([2]; dose required to produce a 25% increase in Q-T interval): 5 µmol/kg; ED25 QRS ([2]; dose required to produce a 25% increase in QRS interval): 12 µmol/kg; ED50AA [3]: 2 µmol/kg/min

Which results are given for CCCCCCCN(CC)CCCC(O)c1ccc(NS(C)(=O)=O)cc1 (stereo not shown) [ibutilide]?
patients requiring cardioversion for refractory ventricular arrhythmias (AF): ~1.7%; risk of ventricular proarrhythmia (AF; patients): ~4.4%
